Measurements as given in PubChem BioAssay (NCI).
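These data come from cells grown in 96-well plates and exposed to compound for 48 hours at five concentrations. GI50 marks 50% less growth. TGI is the concentration that stops growth completely.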

Experiments:
Assay in all cases: NCI tumour cell line growth inhibition, 48 h
MOLT-4 leukemia = tested on: MOLT-4 leukemia
RPMI-8226 leukemia = tested on: RPMI-8226 leukemia
MALME-3M melanoma = tested on: MALME-3M melanoma
RXF 393 renal = tested on: RXF 393 renal
HCC-2998 colon = tested on: HCC-2998 colon
HT29 colon = tested on: HT29 colon
HOP-92 NSCLC = tested on: HOP-92 NSCLC
IGROV1 ovarian = tested on: IGROV1 ovarian
HL-60(TB) leukemia = tested on: HL-60(TB) leukemia
PC-3 prostate = tested on: PC-3 prostate

Compound | TGI (MOLT-4 leukemia) [µM] | TGI (RPMI-8226 leukemia) [µM] | TGI (MALME-3M melanoma) [µM] | TGI (RXF 393 renal) [µM] | TGI (HCC-2998 colon) [µM] | TGI (HT29 colon) [µM] | TGI (HOP-92 NSCLC) [µM] | TGI (IGROV1 ovarian) [µM] | TGI (HL-60(TB) leukemia) [µM] | GI50 (MOLT-4 leukemia) [µM] | GI50 (MALME-3M melanoma) [µM] | GI50 (RXF 393 renal) [µM] | GI50 (HCC-2998 colon) [µM] | GI50 (HT29 colon) [µM] | GI50 (HOP-92 NSCLC) [µM] | GI50 (PC-3 prostate) [µM] | TGI (PC-3 prostate) [µM] | GI50 (IGROV1 ovarian) [µM] | GI50 (HL-60(TB) leukemia) [µM] | GI50 (RPMI-8226 leukemia) [µM]
COc1ccccc1NC(=O)C1=C(C)NC(C)=C(C(=O)Nc2ccccc2OC)C1c1cccc2ccccc12 | > 100 | > 100 | > 100 | > 100 | > 100 | > 100 | 7.87 | > 100 | > 100 |  |  |  |  |  |  |  |  |  |  | 
O=C1c2cccc3c(Cl)ccc(c23)C(=O)N1CCCN1CCN(CCCN2C(=O)c3cccc4c(Cl)ccc(c34)C2=O)CC1 | > 100 | > 100 | > 100 |  | > 100 | > 100 | > 100 | > 100 | > 100 |  |  |  |  |  |  |  |  |  |  | 
Clc1ccc2nc(Cl)c3ccccc3c2c1 | > 100 |  | 71.1 | 30.4 | > 100 | > 100 | 29.7 | 86.8 | > 100 | > 100 | 10.7 | 9.15 | > 100 | 19.9 | 11.9 | > 100 | > 100 | 6.21 | > 100 | 
CCOc1cc2c(=O)oc3c(OC)ccc4ccc(c1OC)c2c43 | > 100 |  | > 100 | > 100 | > 100 | > 100 | > 100 | > 100 | > 100 |  |  |  |  |  |  |  | > 100 |  |  | 
ClC1c2ccccc2C2(c3ccccc3)OOC1(c1ccccc1)O2 (stereo unspecified) | 3.56 | 3.17 | 7.14 | 2.83 | 6.24 | 3.69 | 0.987 |  | 0.309 |  |  |  |  |  |  |  |  |  |  | 
Cc1cccc(C(C)C)c1NC(=O)CCl | > 100 | > 100 | > 100 | 75.5 | > 100 | > 100 | > 100 |  | > 100 |  |  |  |  |  |  |  |  |  |  | 
Fc1ccc([C@@H]2CCNC[C@H]2COc2ccc3c(c2)OCO3)cc1 |  | 8.9 | 6.12 | 20.1 | 4.39 | 13.9 | 12.8 | 20.3 | 19.9 |  | 2.68 | 5.28 | 2.1 | 3.52 | 1.62 | 3.83 | 17.2 | 7.05 | 4.95 | 2.4
CC(C)CN1CC(C)C(=O)NC1=O (stereo unspecified) | > 100 |  | > 100 | > 100 |  | > 100 | > 100 |  | > 100 |  |  |  |  |  |  |  |  |  |  | 
O=C(Nc1ccc(Nc2ccncc2)cc1)c1ccc(Nc2ccnc3ccc([N+](=O)[O-])cc23)cc1[N+](=O)[O-] | > 100 | 55.3 |  | 42.5 | > 100 | > 100 | > 74.2 | > 83.7 | > 58.7 | 43.9 |  | 24.9 | 32.9 | 45.4 | 24.6 | 5.05 | > 40 | 14.1 | 25 | 12.6
CCCC(C)c1c(Cl)nc(Cl)nc1Cl (stereo unspecified) | > 100 | > 100 | 55.6 | 22.4 | 29.9 | 26.5 |  | 36.4 | > 100 |  |  |  |  |  |  |  | 46 |  |  | 
CCC(C)c1cccc(C)c1NC(=O)C(=O)Cc1nc2ccccc2s1 (stereo unspecified) | > 100 | > 100 | > 100 | > 100 | > 100 | > 100 | > 100 | > 100 | > 100 |  |  |  |  |  |  |  |  |  |  | 
CC(=O)Nc1ccc(-c2csc(Nc3cccc(-c4csc(-c5ccccc5)n4)c3)n2)cc1 | > 50 | > 50 |  | 39.6 | > 50 |  | > 50 | > 50 | > 50 | > 50 |  | 13.7 | 12.5 |  | 42.9 | 14.7 | > 50 | 21.5 | 29.7 | 19.4
CN(C)CCNC(=O)c1c2ccccc2cc2ccccc12 | 45 | > 100 | > 100 | 99 | > 100 | > 100 | > 100 | > 100 | 88.5 |  |  |  |  |  |  |  |  |  |  | 
O=C1CCSC(=S)N1c1ccc(Br)c(Cl)c1 | > 100 | > 100 | 49.8 | 50.8 |  | 33.8 | 69.1 | 49.5 | 75.9 |  |  |  |  |  |  |  | > 100 |  |  | 
COc1ccc(-c2nnc(SCC(=O)Nc3ccc(C(=O)/C=C/c4cc(OC)c(OC)c(OC)c4)cc3)n2-c2ccccc2)cc1OC | > 10 | 5.73 | > 10 | 6.85 | > 10 | > 10 |  | > 10 | > 10 | 9.46 | > 10 | 2.13 | 3.08 | 2.07 |  | 6.89 | > 10 | 7.72 | 6.44 | 0.387
Cc1ccc(/C=C/C(=O)c2ccc([N+](=O)[O-])cc2)cc1 | > 100 |  | > 100 | > 100 | > 100 | > 100 |  | > 100 | > 100 |  |  |  |  |  |  |  |  |  |  | 
C=C1CCC2C(C)(CO)C(O)CCC2(C)C1C/C=C1/CCOC1=O (stereo unspecified) | > 100 | > 100 | > 100 |  | > 100 | > 100 | > 100 | > 100 | > 100 |  |  |  |  |  |  |  |  |  |  | 
CN(C)C(=S)/N=c1\ss/c(=N\C(=S)N(C)C)n1Cc1ccco1 | > 100 | > 100 | > 100 | > 100 | > 100 |  |  | > 100 | > 100 |  |  |  |  |  |  |  |  |  |  | 
OCC(O)COc1c(Cl)cc(Cl)cc1Cl (stereo unspecified) | > 31.6 | > 64.6 | > 100 | > 100 | > 100 | > 100 | > 100 | > 100 | > 100 |  |  |  |  |  |  |  |  |  |  | 
O=C(NO)c1ccc(Cn2c(=O)n(-c3ccccc3)c(=O)c3ccccc32)cc1 | > 100 | 93.5 | 2.34 | 2.66 | 2.65 | 47.9 | 4.18 |  | > 100 | 0.848 | 0.473 | 1.11 | 1.31 | 1.83 | 1.6 | 1.72 | 4.53 |  | 2.66 | 0.689
